Assay [1] relates to convulsion induced by picrotoxine in mice. Put plainly: Protection against picrotoxine-induced convulsion (suppression of the tonic extension phase). The conditions noted are these: Mus musculus; for responders at 50 mg/kg: 0.5 h, read-out: i.p.: % prot. (percentage of protected animals), 50 mg/kg i.p., picrotoxine 24 mg/kg i.p. 30 min later; for responders at 50 mg/kg / responders at 100 mg/kg: * p<0.05, ** p<0.01, *** p<0.001; for responders at 100 mg/kg: 1 h, read-out: p.o.: % prot. (percentage of protected animals), 100 mg/kg p.o., picrotoxine 24 mg/kg i.p. 60 min later. Type of assay: in vivo, male Swiss mice. The text has this: The psychotropic properties of the compounds have been determined by the protection of the induced convulsion by picrotoxine for mice, which is achieved by the method derived from that of Krall et al., "Epilepsia", 1978, 19, p. 409-428.
The administration of picrotoxine caused a convulsive crisis in the animal characterised by a myoclonic extension syndrome followed by the extension of the limbs causing the animal to die. Certain substances, particularly those active on the complex GABA/benzodiazepines/Cl-ionophore makes it possible to protect the animals from this convulsive crisis.
In practice the study is carried out on batches of 10 male "Swiss" mice weighing approximately 20 g, which are administered with the product to be studied in aqueous solution either by intraperitoneal route (i.p.) at the rate of 50 mg/kg and in a volume of 0.2 ml of solution per animal, or by oral route (p.o) in a volume of 2.0 ml of solution per animal.
An injection of a solution of picrotoxine at the rate of 24 mg/kg in a volume of 0.2 ml per animal is then administered by interperitoneal route, either 30 minutes after administering the product by interperitoneal route or 60 minutes after administering the product by oral route. The dose of the product injected causing a clonic crisis, which results in untreated animals dying. The suppression of the extension tonic phase in the animals treated under the conditions of the test is observed. The results are expressed:
either in percentages of protected animals of this phase to the reaction of 50 mg/kg of the compound of the study administered by i.p. route or 100 mg/kg by p.o route,
or in DE50 for each of these routes, which is the efficient dosage of the test compound expressed in mg/kg protecting 50% of the animals of this extension phase. The significant value of the results being generally indicated in the following manner:
* Significant result at p<0.05
** Significant result at p<0.01
*** Significant highly significant at p<0.001.

For assay [2], the target named is opiated mu receptor (Cavia porcellus, UniProt A0ACM8Q262). The assay is classed as binding, guinea pig. As to the method: (§1) The analysis is carried out in accordance with the technique described by F. Roman et al. in J. Pharm. Pharmcol. 1987, 39, p. 404-407 which consists of analysing the displacement of specific radioactive ligands of the opiated mu, delta and kappa sub receptors by the action of the test products on the membranous receptors of a guinea pig.
opiated mu receptor (Cavia porcellus, UniProt A0ACM8Q262), sequence (A0ACM8Q262 1-400): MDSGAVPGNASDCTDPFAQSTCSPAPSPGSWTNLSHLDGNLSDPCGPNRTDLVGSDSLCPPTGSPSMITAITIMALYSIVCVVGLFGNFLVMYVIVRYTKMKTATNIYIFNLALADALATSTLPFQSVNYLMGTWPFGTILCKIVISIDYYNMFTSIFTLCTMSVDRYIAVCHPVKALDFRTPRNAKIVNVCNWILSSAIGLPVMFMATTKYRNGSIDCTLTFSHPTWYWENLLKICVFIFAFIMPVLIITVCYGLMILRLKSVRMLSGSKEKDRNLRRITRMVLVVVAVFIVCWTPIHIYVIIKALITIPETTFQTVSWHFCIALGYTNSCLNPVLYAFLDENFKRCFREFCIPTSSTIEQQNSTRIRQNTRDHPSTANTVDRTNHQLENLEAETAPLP

The next assay deals with T1, opiated delta receptor (Cavia porcellus, UniProt A0A286XTF2).
T1 construct: membranous receptors of a guinea pig; from tissue
T1 sequence (A0A286XTF2 1-366): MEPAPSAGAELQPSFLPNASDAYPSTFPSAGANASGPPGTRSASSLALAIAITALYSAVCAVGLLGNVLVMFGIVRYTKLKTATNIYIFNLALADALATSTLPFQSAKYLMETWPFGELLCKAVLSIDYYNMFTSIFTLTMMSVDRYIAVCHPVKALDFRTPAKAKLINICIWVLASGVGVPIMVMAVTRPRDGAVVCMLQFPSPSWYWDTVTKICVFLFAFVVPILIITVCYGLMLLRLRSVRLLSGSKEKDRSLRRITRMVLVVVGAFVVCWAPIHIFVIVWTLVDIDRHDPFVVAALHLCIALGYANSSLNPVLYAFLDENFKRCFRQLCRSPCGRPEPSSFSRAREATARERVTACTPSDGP
Put plainly: Displacement of specific radioactive ligands, opiated delta receptor. Type of assay: binding, guinea pig. The conditions noted are these: inhibition of 50% of radioligand bonds; read-out: CI50 affinity delta rec. As to the method: as §1

The target of another assay is T2, opiated kappa receptor (Cavia porcellus, UniProt P41144).
T2 construct: membranous receptors of a guinea pig; from tissue
T2 sequence (P41144 whole entry): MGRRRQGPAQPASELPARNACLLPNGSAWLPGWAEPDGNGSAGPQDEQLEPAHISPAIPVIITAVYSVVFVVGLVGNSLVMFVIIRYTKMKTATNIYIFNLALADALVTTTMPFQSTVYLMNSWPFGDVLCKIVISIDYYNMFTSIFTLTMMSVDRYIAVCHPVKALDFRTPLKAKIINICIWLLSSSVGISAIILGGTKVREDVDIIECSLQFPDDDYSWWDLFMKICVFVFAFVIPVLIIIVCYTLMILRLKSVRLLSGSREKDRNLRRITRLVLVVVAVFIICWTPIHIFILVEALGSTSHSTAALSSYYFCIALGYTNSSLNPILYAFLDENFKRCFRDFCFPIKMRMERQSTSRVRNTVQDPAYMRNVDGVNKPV
The assay can be described thus: Displacement of specific radioactive ligands, opiated kappa receptor. The assay is classed as binding, guinea pig. Particulars: inhibition of 50% of radioligand bonds; read-out: CI50 affinity kappa rec. As to the method: as §1

The subject of the next assay is bladder of the rat. The assay can be described thus: Transvesical cystomanometry on wide awake rat (urological activity). The assay is classed as in vivo, female rat. The conditions noted are these: for change in vivo at 5 mg/kg / change in vivo at 1 mg/kg: Rattus norvegicus, iv; for change in vivo at 5 mg/kg: 5,0 mg/kg i.v.; for activity on the urinary tract compared to the reference compounds (in words): compared to Dicyclomine and Baclofen; for change in vivo at 1 mg/kg: 1,0 mg/kg i.v. As to the method: Studies by a similar method of operation, the compounds of the invention (I.A) which show a mu and kappa affinity also have an activity on certain functional parameters of the bladder of the rat which justifies their interest in the treatment of dysfunctions in the urinary tract.
The study carried out consists of transvesical cystomanometry on a wide awake rat. The following was measured during the storage and emission phases of urine under continuous intervesical perfusion of sterile physiological serum:
the "threshold pressure", which is the intervesical pressure immediately preceding the contraction phase of the detrusor
the volume of each urinary emission.
The technique used in the female rat consisted of preparing the animals 48 hours before the actual experiment by effecting the implantation of two catheters in the apex of the bladder and one catheter in the left-hand jugular vein under anaesthetic, with the external end of these catheters being protected and held by a sticking plaster corset.
The animals were placed in suitable cages at the time of the test, which were equipped so as to collect and measure the urine. For each animal one vesical catheter was connected to a pressure sensor, the other to a perfusor which supplied 0.2 ml/min. of sterile physiological serum continuously.
The intravesical pressure was measured continuously during the perfusion and it was possible to observe:
a filling phase of the bladder during which the pressure increased progressively,
a sudden rising phase of this pressure during the contraction of the detrusor: the "threshold" pressure which is the pressure observed just before the pressure of the contraction phase. This threshold pressure was raised in the same way as the urinary volume at each urination.
The study consisted of observing the changes in these parameters by the action of the products (IA) which were administered in solution by intravenous route by means of the catheter placed in the left jugular vein.
Dicyclomine and Baclofen which have been considered for the treatment of hyperactive bladders (Drugs of Today, Vol. 24, no. 5, 1988, p. 337-348) were also used in this test in the form of comparison products.

Assay [3] relates to opiated mu receptor. The assay is classed as binding, guinea pig. The conditions noted are these: opiated receptors, compared with morphine. As to the method:
as §1

[4] abbreviates: inhibition of 50% of radioligand bonds; read-out: CI50 affinity mu rec.
[5] abbreviates: read-out: % variation pressure threshold.

Read-outs that look alike come from different tables or passages of the source.

For the compound `CCC(CC=Cc1ccccc1)(NC)c1ccc(Cl)cc1` (stereo not drawn) [Example 19, a-cinnamyl-a-ethyl-N-methyl-p.chlorobenzylamine], the responders at 50 mg/kg in assay [1] (ip) was 70%. Moreover, the results for the IC50 on opiated mu receptor [2] (setting [4]), on opiated delta receptor and at opiated kappa receptor were 200 nM, 3490 nM and 264 nM, respectively. In addition, the change in vivo at 5 mg/kg in the assay on bladder of the rat (setting [5]) turned out to be 354%; in the assay on bladder of the rat (read-out: % variation volume), 54%.

Regarding `CNC(CC=Cc1ccc(Cl)c(Cl)c1)(c1ccccc1)C(C)C` (stereo not drawn) [Example 23, a-(3',4'-dichloro)cinnamyl-a-isopropyl-N-methyl-benzylamine], the responders at 50 mg/kg in assay [1] (ip) was determined as 60%. For the same compound, the responders at 100 mg/kg in assay [1] (po) came out at 100%. The values for the IC50 at opiated mu receptor [2] (setting [4]), at opiated delta receptor and on opiated kappa receptor were 80 nM, 1380 nM and 340 nM, respectively. Also, the figures for the change in vivo at 5 mg/kg in the assay with bladder of the rat (setting [5]) and in the assay with bladder of the rat (read-out: % variation volume) were 196% and 35%, respectively.

Consider `CCC(CC=Cc1ccc(Cl)c(Cl)c1)(NC)c1ccc(OC)cc1` (stereo not drawn) [Example 25, a-(3',4'-dichloro)cinnamyl-a-ethyl-N-methyl-p.methoxybenzylamine], for which, in assay [1] (po), the responders at 100 mg/kg was 50%. Further, the IC50 on opiated mu receptor [2] (setting [4]) was found to be 56 nM; on opiated delta receptor it was 1590 nM; on opiated kappa receptor it was 875 nM. Also, the change in vivo at 5 mg/kg stood at 85% with bladder of the rat (setting [5]) and 67% with bladder of the rat (read-out: % variation volume).

As to `CCC(CC=Cc1ccccc1)(c1ccc(Cl)cc1)N(C)C` (stereo not drawn) [Example 31, a-cinnamyl-N,N-dimethyl-a-ethyl-p.chlorobenzylamine], in assay [1] (ip), the responders at 50 mg/kg turned out to be 100%. Moreover, the responders at 100 mg/kg in assay [1] (po) stood at 50%. Besides, the IC50 at opiated mu receptor [2] (setting [4]) was determined as 80 nM; on opiated delta receptor it was 1340 nM; at opiated kappa receptor, 210 nM. The “activity on the urinary tract compared to the reference compounds (in words)” value in the assay with bladder of the rat is given as “important activity”.

Consider `CCC(CC=Cc1ccccc1)(c1ccc(C)cc1)N(C)C` (stereo not drawn) [Example 33], for which the values for the IC50 at opiated mu receptor [2] (read-out: CI50 affinity mu rec.; inhibition of 50% of radioligand bonds), at opiated delta receptor and on opiated kappa receptor were 50 nM, 1230 nM and 120 nM, respectively. Moreover, the “activity on the urinary tract compared to the reference compounds (in words)” value in the assay with bladder of the rat is reported as “important activity”.

Take `CCC(CC=Cc1ccccc1)(c1ccc(OC)cc1)N(C)C` (stereo not drawn) [Example 35, a-cinnamyl-N,N-dimethyl-a-ethyl-p.methoxybenzylamine]: in assay [1] (ip), the responders at 50 mg/kg stood at 90%. Besides, the ED50 in assay [1] (po, read-out: p.o.: DE50) was found to be 40.3 mg/kg. Moreover, the IC50 is 60 nM at opiated mu receptor [2] (setting [4]), 1280 nM on opiated delta receptor and 290 nM at opiated kappa receptor. In addition, the figures for the change in vivo at 1 mg/kg in the assay with bladder of the rat (setting [5]) and in the assay on bladder of the rat (read-out: % variation volume) were 200% and 39%, respectively. Also, the “activity on the urinary tract compared to the reference compounds (in words)” value with bladder of the rat is “important activity”.

Regarding `CCC(CC=Cc1ccc(Cl)c(Cl)c1)(c1ccccc1)N(C)C` (stereo not drawn) [Example 36, a-(3',4'-dichloro)cinnamyl-N,N-dimethyl-a-ethyl-benzylamine], the responders at 100 mg/kg in assay [1] (po) came out at 100%. The IC50 at opiated mu receptor [2] (setting [4]) is 90 nM; on opiated delta receptor it was 680 nM; on opiated kappa receptor, 220 nM. The change in vivo at 1 mg/kg in the assay on bladder of the rat (setting [5]) was 125%; in the assay on bladder of the rat (read-out: % variation volume), 36%. For the same compound, the “activity on the urinary tract compared to the reference compounds (in words)” value with bladder of the rat was “important activity”.

On to `CCC(CC=Cc1cc(OC)c(OC)c(OC)c1)(c1ccccc1)N(C)C` (stereo not drawn) [Example 37], for which the results for the IC50 at opiated mu receptor [2] (setting [4]), on opiated delta receptor and at opiated kappa receptor were 100 nM, 150 nM and 230 nM, respectively. For the same compound, the change in vivo at 5 mg/kg is 188% with bladder of the rat (setting [5]) and 53% in the assay with bladder of the rat (read-out: % variation volume).

Take `CCC(CC=Cc1ccc(Cl)c(Cl)c1)(c1ccc(Cl)cc1)N(C)C` (stereo not drawn) [Example 43, a-(3',4' dichloro) cinnamyl-N,N-dimethyl-a-ethyl-p.chlorobenzylamine]: the IC50 amounted to 16 nM on opiated mu receptor [2] (setting [4]), 434 nM on opiated delta receptor and 197 nM at opiated kappa receptor. In addition, the “affinity with the receptors compared with morphine (in words)” value in the assay on opiated mu receptor [3] is listed as “same order of intensity as the reference products”. The figures for the change in vivo at 1 mg/kg in the assay on bladder of the rat (setting [5]) and in the assay on bladder of the rat (read-out: % variation volume) were 109% and 91%, respectively. In addition, the “activity on the urinary tract compared to the reference compounds (in words)” value with bladder of the rat is “important activity”.

With `CCC(CC=Cc1ccc(Cl)c(Cl)c1)(c1ccc(C)cc1)N(C)C` (stereo not drawn) [Example 44, a-(3',4'-dichloro) cinnamyl-N,N-dimethyl-a-ethyl-p.methylbenzylamine], the ED50 in assay [1] (ip, read-out: i.p.: DE50) amounted to 21.4 mg/kg; in assay [1] (po, read-out: p.o.: DE50), 23.9 mg/kg. For the same compound, the IC50 on opiated mu receptor [2] (setting [4]) was 4 nM; on opiated delta receptor, 223 nM; at opiated kappa receptor, 110 nM. Further, in the assay with opiated mu receptor [3], the “affinity with the receptors compared with morphine (in words)” value is “same order of intensity as the reference products”. Besides, the “activity on the urinary tract compared to the reference compounds (in words)” value in the assay with bladder of the rat is recorded as “important activity”.

For the compound `CCC(CC=Cc1ccc(Cl)c(Cl)c1)(c1ccc(OC)cc1)N(C)C` (stereo not drawn) [Example 46, a-(3',4'-dichloro)cinnamyl-N,N-dimethyl-a-ethyl-p.metoxybenzylamine], the ED50 in assay [1] (ip, read-out: i.p.: DE50) stood at 29.8 mg/kg; in assay [1] (po, read-out: p.o.: DE50), 35.4 mg/kg. In addition, the IC50 at opiated mu receptor [2] (setting [4]) amounted to 12 nM; on opiated delta receptor it was 260 nM; on opiated kappa receptor, 235 nM. The “affinity with the receptors compared with morphine (in words)” value in the assay on opiated mu receptor [3] is reported as “same order of intensity as the reference products”. Further, the change in vivo at 1 mg/kg in the assay with bladder of the rat (setting [5]) was found to be 111%; in the assay on bladder of the rat (read-out: % variation volume), 44%. In addition, in the assay on bladder of the rat, the “activity on the urinary tract compared to the reference compounds (in words)” value was “important activity”.

(Values after patent publication US5017723A, “Substituted ethylamines, their preparation process, their use as medicine and their synthesising agents” (Jouveinal S.A., priority 1990, dated 1991).)
